Inconclusive results and toxic doses are left out. Cut-off read from the data, not from the text of the source: active = T/C of 150% or more; inactive = T/C below 125%.
Test system: L1210 leukemia ip in BDF1 mice, survival T/C
Experiment: NCI In Vivo Anticancer Drug Screen. Data for tumor model L1210 Leukemia (intraperitoneal) in B6D2F1 (BDF1) mice
Conditions: endpoint: mean survival time, higher = longer survival
Procedure, shortened: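 Tumor cells were implanted, animals were treated, and survival was followed. The result divides the treated measurement by the vehicle-control measurement.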

[1] = dose: 5.0 mg/kg/injection, schedule: Q01DX001 (ip), vehicle: saline
[2] = dose: 10.0 mg/kg/injection, schedule: Q01DX001 (ip), vehicle: saline
[3] = dose: 20.0 mg/kg/injection, schedule: Q01DX001 (ip), vehicle: saline
[4] = dose: 100.0 mg/kg/injection, schedule: Q04DX003 (ip), vehicle: Klucel (hydroxypropylcellulose) (HPC)
[5] = dose: 100.0 mg/kg/injection, schedule: Q01DX009 (ip), vehicle: saline
[6] = dose: 100.0 mg/kg/injection, schedule: Q04DX003 (ip), vehicle: saline
[7] = dose: 200.0 mg/kg/injection, schedule: Q01DX009 (ip), vehicle: saline
[8] = dose: 200.0 mg/kg/injection, schedule: Q04DX003 (ip), vehicle: saline
[9] = dose: 400.0 mg/kg/injection, schedule: Q01DX009 (ip), vehicle: saline
[10] = dose: 400.0 mg/kg/injection, schedule: Q04DX003 (ip), vehicle: saline
[11] = dose: 100.0 mg/kg/injection, schedule: Q01DX001 (ip), vehicle: carboxymethylcellulose (CMC)
[12] = dose: 200.0 mg/kg/injection, schedule: Q01DX001 (ip), vehicle: carboxymethylcellulose (CMC)
[13] = dose: 400.0 mg/kg/injection, schedule: Q01DX001 (ip), vehicle: carboxymethylcellulose (CMC)
[14] = dose: 100.0 mg/kg/injection, schedule: Q01DX001 (ip), vehicle: saline
[15] = dose: 200.0 mg/kg/injection, schedule: Q01DX001 (ip), vehicle: saline
[16] = dose: 400.0 mg/kg/injection, schedule: Q01DX001 (ip), vehicle: saline
[17] = dose: 200.0 mg/kg/injection, schedule: Q04DX003 (ip), vehicle: Klucel (hydroxypropylcellulose) (HPC)
[18] = dose: 400.0 mg/kg/injection, schedule: Q04DX003 (ip), vehicle: Klucel (hydroxypropylcellulose) (HPC)
[19] = dose: 100.0 mg/kg/injection, schedule: Q04DX002 (ip), vehicle: Klucel (hydroxypropylcellulose) (HPC)
[20] = dose: 200.0 mg/kg/injection, schedule: Q04DX002 (ip), vehicle: Klucel (hydroxypropylcellulose) (HPC)
[21] = dose: 50.0 mg/kg/injection, schedule: Q01DX001 (ip), vehicle: carboxymethylcellulose (CMC)
[22] = dose: 100.0 mg/kg/injection, schedule: Q01DX009 (ip), vehicle: Klucel (hydroxypropylcellulose) (HPC)
[23] = dose: 200.0 mg/kg/injection, schedule: Q01DX009 (ip), vehicle: Klucel (hydroxypropylcellulose) (HPC)
[24] = dose: 400.0 mg/kg/injection, schedule: Q01DX009 (ip), vehicle: Klucel (hydroxypropylcellulose) (HPC)

Measured: T/C

Cc1nccn1C(/C(=N/O)c1ccccc1)c1ccccc1 (configuration not stated)
inactive: dose: 100.0 mg/kg/injection, schedule: Q01DX009 (ip), vehicle: saline with Tween-80 96 % of control | dose: 200.0 mg/kg/injection, schedule: Q01DX009 (ip), vehicle: saline with Tween-80 96 % of control | dose: 400.0 mg/kg/injection, schedule: Q01DX009 (ip), vehicle: saline with Tween-80 94 % of control

CC1(C)N=C(N)N=C(N)N1c1cccc(CCCCc2ccc(Cl)cc2Cl)c1
inactive: [1] 94 % of control | dose: 6.25 mg/kg/injection, schedule: Q04DX003 (ip), vehicle: saline with Tween-80 98 % of control | [2] 100 % of control | dose: 12.5 mg/kg/injection, schedule: Q04DX003 (ip), vehicle: saline with Tween-80 93 % of control | [3] 100 % of control | dose: 25.0 mg/kg/injection, schedule: Q04DX003 (ip), vehicle: Klucel (hydroxypropylcellulose) (HPC) 101 % of control | dose: 25.0 mg/kg/injection, schedule: Q04DX003 (ip), vehicle: saline with Tween-80 98 % of control | dose: 50.0 mg/kg/injection, schedule: Q04DX003 (ip), vehicle: Klucel (hydroxypropylcellulose) (HPC) 100 % of control | [4] 93 % of control

O/N=C/C=N/O.O/N=C/C=N/O.[Cl][Rh][Cl]
inactive: dose: 50.0 mg/kg/injection, schedule: Q01DX009 (ip), vehicle: saline 107 % of control | dose: 50.0 mg/kg/injection, schedule: Q04DX003 (ip), vehicle: saline 100 % of control | [5] 101 % of control | [6] 104 % of control | [7] 95 % of control | [8] 102 % of control | [9] 94 % of control | [10] 98 % of control

CCCc1nc2c(nc1C)C(=O)C=CC2=O
inactive: dose: 9.5 mg/kg/injection, schedule: Q01DX001 (ip), vehicle: other 98 % of control

Cc1cc(N(CCCl)CCCl)ccc1C=NC1CCCC1
inactive: [11] 102 % of control | [12] 105 % of control | [13] 118 % of control

CC(=O)OCC1OC(N2CCc3ccccc32)C(OC(C)=O)C(OC(C)=O)C1OC(C)=O (configuration not stated)
inactive: [14] 103 % of control | [15] 102 % of control | [16] 96 % of control

O=C1C(Cl)=C(Cl)C(=O)C2=C1C1c3ccccc3C2c2ccccc21
inactive: [4] 86 % of control | [17] 94 % of control | [18] 89 % of control

BrC1(Br)C23CC=CCC12CCCC3 (configuration not stated)
inactive: [6] 95 % of control | [8] 100 % of control | [10] 105 % of control

C(=C/c1ccccn1)/c1ccccc1
inactive: [19] 100 % of control | [20] 103 % of control | dose: 400.0 mg/kg/injection, schedule: Q04DX002 (ip), vehicle: Klucel (hydroxypropylcellulose) (HPC) 122 % of control

CN(C)C(=O)Nc1ccc(Cl)c(Cl)c1
inactive: [5] 94 % of control | [6] 103 % of control | [7] 102 % of control | [8] 102 % of control | [9] 93 % of control | [10] 96 % of control

CC/C(=C/c1cccc(OC)c1OC)[N+](=O)[O-]
inactive: dose: 12.5 mg/kg/injection, schedule: Q01DX009 (ip), vehicle: saline with Tween-80 105 % of control | dose: 25.0 mg/kg/injection, schedule: Q01DX009 (ip), vehicle: saline with Tween-80 98 % of control | dose: 50.0 mg/kg/injection, schedule: Q01DX009 (ip), vehicle: saline with Tween-80 96 % of control | dose: 100.0 mg/kg/injection, schedule: Q04DX003 (ip), vehicle: saline with Tween-80 107 % of control | dose: 200.0 mg/kg/injection, schedule: Q04DX003 (ip), vehicle: saline with Tween-80 90 % of control

CC(=O)C1(Cl)CCC(C(C)(C)C)CC1 (configuration not stated)
inactive: dose: 100.0 mg/kg/injection, schedule: Q04DX002 (ip), vehicle: saline with Tween-80 111 % of control | dose: 200.0 mg/kg/injection, schedule: Q04DX002 (ip), vehicle: saline with Tween-80 103 % of control | dose: 400.0 mg/kg/injection, schedule: Q04DX002 (ip), vehicle: saline with Tween-80 103 % of control

O=C(Cn1ccc(=O)[nH]c1=O)N1CCC2(CC1)SSC1(CCN(C(=O)Cn3ccc(=O)[nH]c3=O)CC1)S2
inactive: [5] 106 % of control | [6] 97 % of control | [7] 98 % of control | [8] 95 % of control | [9] 93 % of control | [10] 92 % of control

COC1=C(NCCc2ccccc2)C(=O)C(OC)=C(NCCc2ccccc2)C1=O
inactive: [21] 96 % of control | [11] 94 % of control | [12] 89 % of control | [13] 89 % of control

CCCCSC(C)=N
inactive: dose: 100.0 mg/kg/injection, schedule: Q04DX002 (ip), vehicle: saline 97 % of control | dose: 200.0 mg/kg/injection, schedule: Q04DX002 (ip), vehicle: saline 105 % of control | dose: 400.0 mg/kg/injection, schedule: Q04DX002 (ip), vehicle: saline 97 % of control

Cc1cccc(C2=CCCCC2)c1
inactive: [21] 96 % of control | [11] 102 % of control | [12] 96 % of control

O=S(=O)(N/N=C/c1cc(Cl)ccc1O)c1cc(Cl)c(Cl)cc1Cl
inactive: dose: 5.0 mg/kg/injection, schedule: Q01DX Z (ip), vehicle: other 107 % of control | dose: 10.0 mg/kg/injection, schedule: Q01DX Z (ip), vehicle: other 110 % of control | dose: 20.0 mg/kg/injection, schedule: Q01DX Z (ip), vehicle: other 105 % of control

O=c1[nH]c2ccccc2c2ccc(Cl)cc12
inactive: [11] 103 % of control | [12] 100 % of control | [13] 102 % of control

CCOc1ccc([N+](=O)[O-])cn1
inactive: [22] 101 % of control | [4] 93 % of control | [23] 102 % of control | [17] 104 % of control | [24] 106 % of control | [18] 93 % of control

CCCOC(=O)COc1ccc(Cl)cc1
inactive: [22] 97 % of control | [23] 95 % of control | [24] 104 % of control

CCCCCCCC/C=C/CCCCCC1CCCC(C)N1 (configuration not stated)
inactive: dose: 6.25 mg/kg/injection, schedule: Q04DX002 (ip), vehicle: saline 96 % of control | dose: 12.5 mg/kg/injection, schedule: Q04DX002 (ip), vehicle: saline 96 % of control | dose: 25.0 mg/kg/injection, schedule: Q04DX002 (ip), vehicle: saline 111 % of control | dose: 50.0 mg/kg/injection, schedule: Q04DX002 (ip), vehicle: saline 90 % of control

CN(C)Cc1ccccc1COC(=O)/C=C/c1ccccc1
inactive: dose: 50.0 mg/kg/injection, schedule: Q04DX002 (ip), vehicle: Klucel (hydroxypropylcellulose) (HPC) 101 % of control | [19] 94 % of control | [20] 97 % of control

CC(O)C(O)C(N)CC=O (configuration not stated)
inactive: [1] 101 % of control | [2] 113 % of control | [3] 97 % of control | dose: 40.0 mg/kg/injection, schedule: Q01DX001 (ip), vehicle: saline 98 % of control | [5] 102 % of control | [7] 97 % of control | [9] 97 % of control

O=C(NC(=S)Nc1ccccc1)c1cccc(Cl)c1
inactive: dose: 75.0 mg/kg/injection, schedule: Q01DX001 (ip), vehicle: carboxymethylcellulose (CMC) 95 % of control | dose: 150.0 mg/kg/injection, schedule: Q01DX001 (ip), vehicle: carboxymethylcellulose (CMC) 96 % of control

COc1c2c(c(OC)c3ccccc13)C(=O)C1=C(CC=CC1)C2=O
inactive: dose: 50.0 mg/kg/injection, schedule: Q01DX005 (ip), vehicle: water 94 % of control | dose: 100.0 mg/kg/injection, schedule: Q01DX005 (ip), vehicle: water 87 % of control | dose: 200.0 mg/kg/injection, schedule: Q01DX005 (ip), vehicle: water 92 % of control

CN(C)P(=O)(N(C)C)N(C)C
inactive: [14] 101 % of control | [15] 98 % of control | [16] 102 % of control | dose: 1:6400.0 dilution, schedule: Q01DX009 (ip), vehicle: saline 107 % of control

CC1(CCCCCBr)OCCO1
inactive: [22] 97 % of control | [23] 100 % of control | [24] 94 % of control

From PubChem BioAssay AID248 (DTP/NCI, 2004)
